Results: the NIST ThermoML archive (doi:10.1016/j.jct.2006.09.003)
± gives the expanded uncertainty stated by the source.

Conditions: Fluid (supercritical or subcritical phases), Bellows volumetry

## CCCC [butane]
280 K, 1000 kPa
  mass density: 595.47 ± 1.1 kg/m3
280 K, 2000 kPa
  mass density: 596.86 ± 1.1 kg/m3
280 K, 3000 kPa
  mass density: 598.22 ± 1.1 kg/m3
280 K, 5000 kPa
  mass density: 600.88 ± 1.1 kg/m3
280 K, 10000 kPa
  mass density: 607.05 ± 1.1 kg/m3
280 K, 20000 kPa
  mass density: 617.68 ± 1.1 kg/m3
280 K, 30000 kPa
  mass density: 626.91 ± 1.1 kg/m3
280 K, 40000 kPa
  mass density: 635.29 ± 1.1 kg/m3
280 K, 50000 kPa
  mass density: 642.77 ± 1.2 kg/m3
280 K, 60000 kPa
  mass density: 649.44 ± 1.2 kg/m3
280 K, 70000 kPa
  mass density: 655.79 ± 1.2 kg/m3
280 K, 80000 kPa
  mass density: 661.73 ± 1.2 kg/m3
280 K, 90000 kPa
  mass density: 667.23 ± 1.2 kg/m3
280 K, 100000 kPa
  mass density: 672.51 ± 1.2 kg/m3
280 K, 120000 kPa
  mass density: 682.08 ± 1.8 kg/m3
280 K, 140000 kPa
  mass density: 690.89 ± 1.8 kg/m3
280 K, 160000 kPa
  mass density: 698.82 ± 1.8 kg/m3
280 K, 180000 kPa
  mass density: 706.38 ± 1.9 kg/m3
280 K, 200000 kPa
  mass density: 713.34 ± 1.9 kg/m3
300 K, 1000 kPa
  mass density: 572.94 ± 1 kg/m3
300 K, 2000 kPa
  mass density: 574.58 ± 1 kg/m3
300 K, 3000 kPa
  mass density: 576.27 ± 1 kg/m3
300 K, 5000 kPa
  mass density: 579.56 ± 1 kg/m3
300 K, 10000 kPa
  mass density: 586.77 ± 1.1 kg/m3
300 K, 20000 kPa
  mass density: 599.44 ± 1.1 kg/m3
300 K, 30000 kPa
  mass density: 610.13 ± 1.1 kg/m3
300 K, 40000 kPa
  mass density: 619.89 ± 1.1 kg/m3
300 K, 50000 kPa
  mass density: 628.14 ± 1.1 kg/m3
300 K, 60000 kPa
  mass density: 635.82 ± 1.1 kg/m3
300 K, 70000 kPa
  mass density: 642.36 ± 1.2 kg/m3
300 K, 80000 kPa
  mass density: 648.71 ± 1.2 kg/m3
300 K, 90000 kPa
  mass density: 654.83 ± 1.2 kg/m3
300 K, 100000 kPa
  mass density: 660.41 ± 1.2 kg/m3
300 K, 120000 kPa
  mass density: 670.68 ± 1.2 kg/m3
300 K, 140000 kPa
  mass density: 680.05 ± 1.2 kg/m3
300 K, 160000 kPa
  mass density: 688.48 ± 1.3 kg/m3
300 K, 180000 kPa
  mass density: 696.25 ± 1.3 kg/m3
300 K, 200000 kPa
  mass density: 703.51 ± 1.3 kg/m3
320 K, 1000 kPa
  mass density: 548.24 ± 0.99 kg/m3
320 K, 2000 kPa
  mass density: 550.53 ± 0.99 kg/m3
320 K, 3000 kPa
  mass density: 552.73 ± 0.99 kg/m3
320 K, 5000 kPa
  mass density: 556.84 ± 1 kg/m3
320 K, 10000 kPa
  mass density: 566.09 ± 1 kg/m3
320 K, 20000 kPa
  mass density: 580.87 ± 1.1 kg/m3
320 K, 30000 kPa
  mass density: 593.19 ± 1.1 kg/m3
320 K, 40000 kPa
  mass density: 603.68 ± 1.1 kg/m3
320 K, 50000 kPa
  mass density: 612.97 ± 1.1 kg/m3
320 K, 60000 kPa
  mass density: 621.23 ± 1.1 kg/m3
320 K, 70000 kPa
  mass density: 628.85 ± 1.1 kg/m3
320 K, 80000 kPa
  mass density: 635.85 ± 1.1 kg/m3
320 K, 90000 kPa
  mass density: 642.47 ± 1.2 kg/m3
320 K, 100000 kPa
  mass density: 648.38 ± 1.2 kg/m3
320 K, 120000 kPa
  mass density: 659.38 ± 1.2 kg/m3
320 K, 140000 kPa
  mass density: 669.21 ± 1.2 kg/m3
320 K, 160000 kPa
  mass density: 678.31 ± 1.2 kg/m3
320 K, 180000 kPa
  mass density: 686.49 ± 1.3 kg/m3
320 K, 200000 kPa
  mass density: 694.12 ± 1.3 kg/m3
340 K, 1000 kPa
  mass density: 521.26 ± 0.94 kg/m3
340 K, 2000 kPa
  mass density: 524.21 ± 0.94 kg/m3
340 K, 3000 kPa
  mass density: 527.06 ± 0.95 kg/m3
340 K, 5000 kPa
  mass density: 532.46 ± 0.96 kg/m3
340 K, 10000 kPa
  mass density: 544.06 ± 0.98 kg/m3
340 K, 20000 kPa
  mass density: 561.99 ± 1 kg/m3
340 K, 30000 kPa
  mass density: 576.2 ± 1 kg/m3
340 K, 40000 kPa
  mass density: 588.27 ± 1.1 kg/m3
340 K, 50000 kPa
  mass density: 598.47 ± 1.1 kg/m3
340 K, 60000 kPa
  mass density: 607.64 ± 1.1 kg/m3
340 K, 70000 kPa
  mass density: 615.81 ± 1.1 kg/m3
340 K, 80000 kPa
  mass density: 623.32 ± 1.1 kg/m3
340 K, 90000 kPa
  mass density: 630.37 ± 1.1 kg/m3
340 K, 100000 kPa
  mass density: 636.58 ± 1.1 kg/m3
340 K, 120000 kPa
  mass density: 648.45 ± 2.9 kg/m3
340 K, 140000 kPa
  mass density: 658.64 ± 2.9 kg/m3
340 K, 160000 kPa
  mass density: 668.16 ± 3 kg/m3
340 K, 180000 kPa
  mass density: 676.9 ± 3 kg/m3
340 K, 200000 kPa
  mass density: 684.85 ± 3 kg/m3
360 K, 2000 kPa
  mass density: 494.28 ± 0.89 kg/m3
360 K, 3000 kPa
  mass density: 498.49 ± 0.9 kg/m3
360 K, 5000 kPa
  mass density: 505.91 ± 0.91 kg/m3
360 K, 10000 kPa
  mass density: 520.98 ± 0.94 kg/m3
360 K, 20000 kPa
  mass density: 542.91 ± 0.98 kg/m3
360 K, 30000 kPa
  mass density: 559.24 ± 1 kg/m3
360 K, 40000 kPa
  mass density: 572.58 ± 1 kg/m3
360 K, 50000 kPa
  mass density: 584.17 ± 1.1 kg/m3
360 K, 60000 kPa
  mass density: 593.9 ± 1.1 kg/m3
360 K, 70000 kPa
  mass density: 602.93 ± 1.1 kg/m3
360 K, 80000 kPa
  mass density: 610.9 ± 1.1 kg/m3
360 K, 90000 kPa
  mass density: 618.47 ± 1.1 kg/m3
360 K, 100000 kPa
  mass density: 625.39 ± 1.1 kg/m3
360 K, 120000 kPa
  mass density: 637.62 ± 1.2 kg/m3
360 K, 140000 kPa
  mass density: 648.76 ± 1.2 kg/m3
360 K, 160000 kPa
  mass density: 658.47 ± 1.2 kg/m3
360 K, 180000 kPa
  mass density: 667.68 ± 1.2 kg/m3
360 K, 200000 kPa
  mass density: 676.03 ± 1.3 kg/m3
380 K, 2000 kPa
  mass density: 456.63 ± 0.82 kg/m3
380 K, 3000 kPa
  mass density: 463.53 ± 0.83 kg/m3
380 K, 5000 kPa
  mass density: 474.94 ± 0.86 kg/m3
380 K, 10000 kPa
  mass density: 495.21 ± 0.89 kg/m3
380 K, 20000 kPa
  mass density: 522.42 ± 0.94 kg/m3
380 K, 30000 kPa
  mass density: 541.49 ± 0.98 kg/m3
380 K, 40000 kPa
  mass density: 556.53 ± 1 kg/m3
380 K, 50000 kPa
  mass density: 569.05 ± 1 kg/m3
380 K, 60000 kPa
  mass density: 580.01 ± 1.1 kg/m3
380 K, 70000 kPa
  mass density: 589.59 ± 1.1 kg/m3
380 K, 80000 kPa
  mass density: 598.34 ± 1.1 kg/m3
380 K, 90000 kPa
  mass density: 606.19 ± 1.1 kg/m3
380 K, 100000 kPa
  mass density: 613.44 ± 1.1 kg/m3
380 K, 120000 kPa
  mass density: 626.58 ± 1.1 kg/m3
380 K, 140000 kPa
  mass density: 638.25 ± 1.2 kg/m3
380 K, 160000 kPa
  mass density: 648.59 ± 1.2 kg/m3
380 K, 180000 kPa
  mass density: 658.14 ± 1.2 kg/m3
380 K, 200000 kPa
  mass density: 666.86 ± 1.2 kg/m3
